Test results: patent US9951021B2, “Compounds for inhibiting c-Myc/Max/DNA complex formation” (NATIONAL CANCER CENTER, priority 2016, dated 2018)

These molecules were tested against T1, recombinant c-Myc/Max (Homo sapiens, UniProt P01106+P61244) (assay: Electrophoretic mobility shift assay (EMSA): inhibitory activity on DNA binding of recombinant c-Myc/Max). Details: read-out: protein assay IC50.
T1 construct: made in house
T1 sequence (P01106 whole entry): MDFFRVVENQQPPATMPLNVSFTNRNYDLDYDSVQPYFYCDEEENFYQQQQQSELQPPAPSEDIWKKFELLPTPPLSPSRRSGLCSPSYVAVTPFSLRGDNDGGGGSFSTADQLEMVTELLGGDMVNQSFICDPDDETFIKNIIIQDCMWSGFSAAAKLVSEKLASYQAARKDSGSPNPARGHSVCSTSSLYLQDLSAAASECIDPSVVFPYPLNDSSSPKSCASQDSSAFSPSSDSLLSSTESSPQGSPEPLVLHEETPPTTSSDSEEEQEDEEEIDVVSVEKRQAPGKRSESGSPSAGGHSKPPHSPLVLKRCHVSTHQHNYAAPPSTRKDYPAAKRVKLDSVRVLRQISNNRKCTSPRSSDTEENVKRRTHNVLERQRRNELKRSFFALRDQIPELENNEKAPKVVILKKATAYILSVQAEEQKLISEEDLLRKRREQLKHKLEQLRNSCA
T1 sequence (P61244 whole entry): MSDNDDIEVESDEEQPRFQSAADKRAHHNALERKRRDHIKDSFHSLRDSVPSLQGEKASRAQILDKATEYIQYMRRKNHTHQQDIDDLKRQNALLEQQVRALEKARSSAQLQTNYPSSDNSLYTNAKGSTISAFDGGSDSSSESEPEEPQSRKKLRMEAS
Experimental: 1) Preparation of Recombinant c-Myc and Max Proteins
Recombinant proteins were prepared as described in the following references: K. C. Jung et al., Fatty Acids, Inhibitors for the DNA Binding of c-Myc/Max Dimer, Suppress Proliferation and Induce Apoptosis of Differentiated HL-60 Human Leukemia Cell, Leukemia, 2006, 20(1), 122-7 or Kyung-Chae Jeong et al., Small-Molecule Inhibitors of c-Myc Transcriptional Factor Suppress Proliferation and Induce Apoptosis of Promyelocytic Leukemia Cell via Cell Cycle Arrest, Mol. BioSyst., 2010, 6, 1503-1509.
2) Electrophoretic Mobility Shift Assay (EMSA)
The inhibitory activity of each candidate compound on DNA binding of recombinant c-Myc/Max was measured using an electrophoretic mobility shift assay (EMSA). The ratio of protein-DNA complexes in each sample was evaluated by measuring band intensity. The oligonucleotides (E-box) corresponding to the consensus binding site of Myc/Max were dimerized through an annealing process. The protein mixture was incubated at room temperature for 5 minutes, and a DMSO solution containing each candidate compound was added thereto. The mixture was further incubated for 5 minutes, and the biotinylated DNA was added. To achieve a state of equilibrium, the final mixture was incubated at room temperature for 10 minutes. The protein-DNA complexes were separated from unbound free DNA by pre-electrophoresis using 8% polyacrylamide gel and 1×TBE buffer. After pre-electrophoresis, electrophoresis was performed at 120 V for 1 hour in 1×TBE buffer. Each band was visualized using HRP-conjugated streptavidin and an ECL solution, and band intensity was measured using image analysis software.
In the case of `COc1cc(C[S+]([O-])c2[nH]c3c(Br)ccc(Cl)c3c(=O)c2C(C)=O)cc(OC)c1` (stereo not drawn) [Compound 59, 3-acetyl-8-bromo-5-chloro-2-((3,5-dimethoxybenzyl)sulfinyl)quinolin-4(1H)-one], the IC50 is reported as < 1000 nM. For `CC(=O)c1c([S+]([O-])Cc2ccc(C(C)(C)C)cc2)[nH]c2c(Br)ccc(Cl)c2c1=O` (stereo not drawn) [Compound 60, 3-acetyl-8-bromo-2-((4-(tert-butyl)benzyl)sulfinyl)-5-chloroquinolin-4(1H)-one], the IC50 was < 1000 nM. In the case of `COCSc1[nH]c2c(Br)ccc(Cl)c2c(=O)c1C(C)=O` [Compound 61, 3-acetyl-8-bromo-5-chloro-2-((methoxymethyl)thio)quinolin-4(1H)-one], the IC50 is reported as < 1000 nM. In the case of `CC(=O)c1c(S)[nH]c2c(Br)ccc(Cl)c2c1=O` [Compound 62, 3-acetyl-8-bromo-5-chloro-2-mercaptoquinolin-4(1H)-one], the IC50 is reported as < 1000 nM. For `CC(=O)c1c([S+]([O-])Cc2ccc(C(=O)c3ccccc3)cc2)[nH]c2c(Br)ccc(Cl)c2c1=O` (stereo not drawn) [Compound 63, 3-acetyl-2-((4-benzoylbenzyl)sulfinyl)-8-bromo-5-chloroquinolin-4(1H)-one], the IC50 was < 1000 nM. With `CC(=O)c1c([S+]([O-])Cc2ccc([S+]([O-])C(F)(F)F)cc2)[nH]c2c(Br)ccc(Cl)c2c1=O` (stereo not drawn) [Compound 64, 3-acetyl-8-bromo-5-chloro-2-((4-((trifluoromethyl)sulfinyl)benzyl)sulfinyl)quinolin-4(1H)-one] the IC50 was < 1000 nM. `CC(=O)c1c([S+]([O-])CC#N)[nH]c2c(Br)ccc(Cl)c2c1=O` (stereo not drawn) [Compound 65, 2-((3-acetyl-8-bromo-5-chloro-4-oxo-1,4-dihydroquinolin-2-yl)sulfinyl)acetonitrile] was tested, and the IC50 was < 1000 nM. For `CC(=O)c1c(SCC#N)[nH]c2c(Br)ccc(Cl)c2c1=O` [Compound 66, 2-((3-acetyl-8-bromo-5-chloro-4-oxo-1,4-dihydroquinolin-2-yl)thio)acetonitrile], the IC50 was < 1000 nM. For `CC(=O)c1c(S/C=C\C(=O)O)[nH]c2c(Br)ccc(Cl)c2c1=O` [Compound 67, (Z)-3-((3-acetyl-8-bromo-5-chloro-4-oxo-1,4-dihydroquinolin-2-yl)thio)acrylic acid], the IC50 was < 1000 nM. For `CC(=O)c1c([S+]([O-])Cc2ccc(S(F)(F)(F)(F)F)cc2)[nH]c2c(Br)ccc(Cl)c2c1=O` (stereo not drawn) [Compound 68, 3-acetyl-8-bromo-5-chloro-2-((4-(pentafluoro-16-sulfanyl)benzyl)sulfinyl)quinolin-4(1H)-one], the IC50 was < 1000 nM. For `CC(=O)c1c([S+]([O-])Cc2ccc(S(F)(F)(F)(F)F)cc2F)[nH]c2c(Br)ccc(Cl)c2c1=O` (stereo not drawn) [Compound 69, 3-acetyl-8-bromo-5-chloro-2-((2-fluoro-4-(pentafluoro-16-sulfanyl)benzyl)sulfinyl)quinolin-4(1H)-one], the IC50 was < 1000 nM. For `CC(=O)c1c([S+]([O-])Cc2ccc(C(F)(F)F)cc2)[nH]c2c(Br)ccc(Cl)c2c1=O` (stereo not drawn) [Compound 70, 3-acetyl-8-bromo-5-chloro-2-((4-(trifluoromethyl)benzyl)sulfinyl)quinolin-4(1H)-one], the IC50 was < 1000 nM. With `CC(=O)c1c([S+]([O-])Cc2ccc(OC(F)(F)F)cc2)[nH]c2c(Br)ccc(Cl)c2c1=O` (stereo not drawn) [Compound 71, 3-acetyl-8-bromo-5-chloro-2-((4-(trifluoromethoxy)benzyl)sulfinyl)quinolin-4(1H)-one] the IC50 was < 1000 nM. `CC(=O)c1c([S+]([O-])Cc2ccc(C(F)(F)F)o2)[nH]c2c(Br)ccc(Cl)c2c1=O` (stereo not drawn) [Compound 72, 3-acetyl-8-bromo-5-chloro-2-(((5-(trifluoromethyl)furan-2-yl)methyl)sulfinyl)quinolin-4(1H)-one] was tested, and the IC50 was < 1000 nM. In the case of `CC(=O)c1c([S+]([O-])Cc2ccc(C#N)cc2)[nH]c2c(Br)ccc(Cl)c2c1=O` (stereo not drawn) [Compound 73, 4-(((3-acetyl-8-bromo-5-chloro-4-oxo-1,4-dihydroquinolin-2-yl)sulfinyl)methyl)benzonitrile], the IC50 is reported as < 1000 nM. `CC(=O)c1c([S+]([O-])Cc2c(F)cccc2Cl)[nH]c2c(Br)ccc(Cl)c2c1=O` (stereo not drawn) [Compound 74, 3-acetyl-8-bromo-5-chloro-2-((2-chloro-6-fluorobenzyl)sulfinyl)quinolin-4(1H)-one] was tested, and the IC50 was < 1000 nM. In the case of `COc1cc(S(F)(F)(F)(F)F)ccc1C[S+]([O-])c1[nH]c2c(Br)ccc(Cl)c2c(=O)c1C(C)=O` (stereo not drawn) [Compound 75, 3-acetyl-8-bromo-5-chloro-2-((2-methoxy-4-(pentafluoro-λ6-sulfanyl)benzyl)sulfinyl)quinolin-4(1H)-one], the IC50 is reported as < 1000 nM. With `CC(=O)c1c([S+]([O-])Cc2cc(F)cc(S(F)(F)(F)(F)F)c2)[nH]c2c(Br)ccc(Cl)c2c1=O` (stereo not drawn) [Compound 76, 3-acetyl-8-bromo-5-chloro-2-((3-fluoro-5-(pentafluoro-λ6-sulfanyl)benzyl)sulfinyl)quinolin-4(1H)-one] the IC50 was < 1000 nM. In the case of `CC(=O)c1c([S+]([O-])Cc2cccc(S(F)(F)(F)(F)F)c2)[nH]c2c(Br)ccc(Cl)c2c1=O` (stereo not drawn) [Compound 77, 3-acetyl-8-bromo-5-chloro-2-((3-(pentafluoro-λ6-sulfanyl)benzyl)sulfinyl)quinolin-4(1H)-one], the IC50 is reported as < 1000 nM. `CC(=O)c1c([S+]([O-])Cc2c(F)c(F)c(F)c(F)c2F)[nH]c2c(Br)ccc(Cl)c2c1=O` (stereo not drawn) [Compound 78, 3-acetyl-8-bromo-5-chloro-2-(((perfluorophenyl)methyl)sulfinyl)quinolin-4(1H)-one] was tested, and the IC50 was < 1000 nM. In the case of `CC(=O)c1c([S+]([O-])Cc2ccc(SC(F)(F)F)cc2)[nH]c2c(Cl)ccc(Cl)c2c1=O` (stereo not drawn) [Compound 79, 3-acetyl-5,8-dichloro-2-((4-((trifluoromethyl)thio)benzyl)sulfinyl)quinolin-4(1H)-one], the IC50 is reported as < 1000 nM. For `CC(=O)c1c([S+]([O-])Cc2ccc(S(F)(F)(F)(F)F)cc2)[nH]c2c(F)ccc(F)c2c1=O` (stereo not drawn) [Compound 80, 3-acetyl-5,8-difluoro-2-((4-(pentafluoro-λ6-sulfanyl)benzyl)sulfinyl)quinolin-4(1H)-one], the IC50 was < 1000 nM. `CC(=O)c1c([S+]([O-])Cc2ccc(C(F)(F)F)o2)[nH]c2c(F)ccc(F)c2c1=O` (stereo not drawn) [Compound 81, 3-acetyl-5,8-difluoro-2-(((5-(trifluoromethyl)furan-2-yl)methyl)sulfinyl)quinolin-4(1H)-one] was tested, and the IC50 was < 1000 nM. For `CC(=O)c1c([S+]([O-])Cc2cc(C)on2)[nH]c2c(F)ccc(F)c2c1=O` (stereo not drawn) [Compound 82, 3-acetyl-5,8-difluoro-2-(((5-methylisoxazol-3-yl)methyl)sulfinyl)quinolin-4(1H)-one], the IC50 was < 1000 nM. For `CC(=O)c1c([S+]([O-])Cc2ccc(I)cc2)[nH]c2c(Cl)ccc(Cl)c2c1=O` (stereo not drawn) [Compound 83, 3-acetyl-5,8-dichloro-2-((4-iodobenzyl)sulfinyl)quinolin-4(1H)-one], the IC50 was < 1000 nM. In the case of `CC(=O)c1c([S+]([O-])Cc2cccnc2)[nH]c2c(Br)ccc(Cl)c2c1=O` (stereo not drawn) [Compound 84, 3-acetyl-8-bromo-5-chloro-2-((pyridin-3-ylmethyl)sulfinyl)quinolin-4(1H)-one], the IC50 is reported as < 1000 nM. In the case of `CC(C)C(=O)c1c([S+]([O-])Cc2ccc(SC(F)(F)F)cc2)[nH]c2c(F)ccc(F)c2c1=O` (stereo not drawn) [Compound 85, 5,8-difluoro-3-isobutyryl-2-((4-((trifluoromethyl)thio)benzyl)sulfinyl)quinolin-4(1H)-one], the IC50 is reported as < 1000 nM.
